In US9409905B2, “Antibacterial compounds and methods for use” (PTC THERAPEUTICS, INC., priority 2011, dated 2016):
In brackets after ≈: the same amount, converted by molar mass.

Key:
E. coli ELZ4000 = assay: Antibacterial activity, MIC, multi-drug resistant clinical isolate (Table 3); format: cell-based; conditions: Escherichia coli, ELZ4000, read-out: MIC ELZ4000
Summary of the method: (§1)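 Microbroth dilution. Endpoint: absence of macroscopically visible growth. Value = MIC, μg/mL.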

E. coli ELZ4251 = assay: as above; format: cell-based; conditions: Escherichia coli
Summary of the method: as §1

[1] = system: Acinetobacter baumannii (A. baumannii) BAA747; assay: Antibacterial activity, MIC (Table 4); format: cell-based; conditions: A. baumannii BAA747, read-out: MIC, BAA747
Summary of the method: (§2)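 Broth microdilution; MIC (μg/mL) = lowest concentration with no macroscopically visible growth. Resistant strains: multi-drug resistant clinical isolates.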

[2] = system: Klebsiella pneumoniae (K. pneumoniae) 35657; assay: Antibacterial activity, MIC (Table 4); format: cell-based; conditions: K. pneumoniae 35657, read-out: MIC, 35657
Summary of the method: as §2

A. baumannii MXX2240 = assay: Antibacterial activity, MIC, resistant strain (Table 4); format: cell-based; conditions: Acinetobacter baumannii, MXX2240; resistant A. baumannii MMX2240, multi-drug resistant clinical isolate; read-out: MIC, MMX2240
Summary of the method: as §2

K. pneumoniae MXX1232 = assay: as above; format: cell-based; conditions: Klebsiella pneumoniae, MXX1232; resistant K. pneumoniae MMX1232, multi-drug resistant clinical isolate; read-out: MIC, MMX1232
Summary of the method: as §2

[3] = system: Escherichia coli (E. coli) BAS849; assay: Antibacterial activity, microbroth dilution MIC (Table 1); format: cell-based; conditions: microbroth dilution, super sensitive Gram-negative E. coli BAS849, read-out: MIC, BAS849
Summary of the method: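 Potency is reported as minimum inhibitory concentration in μg/mL, determined by broth microdilution as the lowest level of compound that stops growth visible to the eye.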

[4] = system: Staphylococcus aureus (S. aureus) 29213; assay: as above; format: cell-based; conditions: microbroth dilution, Gram-positive S. aureus 29213, read-out: MIC, 29213
Summary of the method: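 MIC (μg/mL) is taken as the lowest concentration with no macroscopically visible growth. Strains tested by microbroth dilution: Gram-positive S. aureus 29213, control Gram-negative E. coli 25922, and super-sensitive E. coli BAS849.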

E. coli 25922 = assay: as above; format: cell-based, Escherichia coli; conditions: Escherichia coli; microbroth dilution; control Gram-negative E. coli 25922 strain; read-out: MIC, 25922
Summary of the method: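 In a microbroth dilution test, the minimum inhibitory concentration was defined as the lowest compound level preventing growth seen by eye, and was given in μg/mL.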

[5] = system: Haemophilus influenzae (H. influenzae) 49247; assay: Antibacterial activity, MIC (Table 6); format: cell-based
Description: (§3) The antibacterial activity from a microbroth dilution method may be presented as the minimum inhibitory concentration (MIC in μg/mL). The MIC value is the lowest concentration of drug which prevents macroscopically visible growth under test conditions.
(§4) Antibacterial activity of test compounds against the Gram-negative bacteria Haemophilus influenzae (H. influenzae) 49247 is shown in Table 6, Moraxella catarrhalis (M. catarrhalis) 25238 is shown in Table 7 and Neisseria meningitidis (N. meningitidis) 13090 is shown in Table 8.

E. coli LZ3111 = assay: Antibacterial activity, MIC, quinolone resistant strain (Table 2); format: cell-based; conditions: Escherichia coli, LZ3111, read-out: MIC LZ3111
Summary of the method: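 Strain carries mutations conferring high-level quinolone resistance; tested by microbroth dilution, MIC recorded in μg/mL as lowest concentration preventing visible growth.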

[6] = system: Pseudomonas aeruginosa (P. aeruginosa) 27853; assay: Antibacterial activity, MIC (Table 5); format: cell-based; conditions: P. aeruginosa 27853, read-out: MIC, 27853
Summary of the method: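 Compounds are serially diluted in broth and inoculated with the organism. Growth is then inspected macroscopically, and the lowest concentration showing none is taken as the MIC (μg/mL).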

[7] = system: Neisseria meningitidis (N. meningitidis) 13090; assay: Antibacterial activity, MIC (Table 8); format: cell-based
Description: as §3, §4

[8] = system: Moraxella catarrhalis (M. catarrhalis) 25238; assay: Antibacterial activity, MIC (Table 7); format: cell-based
Description: as §3, §4

SMILES | MIC (E. coli ELZ4000) [µg/mL] | MIC (E. coli ELZ4251) [µg/mL] | MIC [1] [µg/mL] | MIC [2] [µg/mL] | MIC (A. baumannii MXX2240) [µg/mL] | MIC (K. pneumoniae MXX1232) [µg/mL] | MIC [3] [µg/mL] | MIC [4] [µg/mL] | MIC (E. coli 25922) [µg/mL] | MIC [5] [µg/mL] | MIC (E. coli LZ3111) [µg/mL] | MIC [6] [µg/mL] | MIC [7] [µg/mL] | MIC [8] [µg/mL]
CCc1c(-c2ccc3c(c2)CCN3C)[nH]c(=O)c(C(=O)O)c1O [Cpd 6, 5-ethyl-4-hydroxy-6-(1-methylindolin-5-yl)-2-oxo-1,2-dihydropyridine-3-carboxylic acid] | 12.5 to 150 (≈ 39.8 to 477 µM) | 12.5 to 150 (≈ 39.8 to 477 µM) | 1 to 3.5 (≈ 3.18 to 11.1 µM) | 12.5 to 150 (≈ 39.8 to 477 µM) | 1 to 3.5 (≈ 3.18 to 11.1 µM) | 12.5 to 150 (≈ 39.8 to 477 µM) | < 1 | 3.5 to 12.5 (≈ 11.1 to 39.8 µM) | 3.5 to 12.5 (≈ 11.1 to 39.8 µM) | < 1 | 12.5 to 150 (≈ 39.8 to 477 µM) | 12.5 to 150 (≈ 39.8 to 477 µM) | < 1 | 
CCc1cc(C(=O)O)c(=O)[nH]c1-c1ccc2c(ccn2C)c1 [Cpd 21, 5-ethyl-6-(1-methyl-1H-indol-5-yl)-2-oxo-1,2-dihydropyridine-3-carboxylic acid] | 12.5 to 150 (≈ 42.2 to 506 µM) | 12.5 to 150 (≈ 42.2 to 506 µM) | < 1 | < 1 | 12.5 to 150 (≈ 42.2 to 506 µM) | 12.5 to 150 (≈ 42.2 to 506 µM) | < 1 | 3.5 to 12.5 (≈ 11.8 to 42.2 µM) | < 1 | < 1 | 12.5 to 150 (≈ 42.2 to 506 µM) | 12.5 to 150 (≈ 42.2 to 506 µM) | < 1 | 
CCc1c(-c2ccc3c(ccn3C)c2)[nH]c(=O)c(C(=O)O)c1O [Cpd 22, 5-ethyl-4-hydroxy-6-(1-methyl-1H-indol-5-yl)-2-oxo-1,2-dihydropyridine-3-carboxylic acid] | 3.5 to 12.5 (≈ 11.2 to 40 µM) | 3.5 to 12.5 (≈ 11.2 to 40 µM) | < 1 | 1 to 3.5 (≈ 3.2 to 11.2 µM) | < 1 | 12.5 to 150 (≈ 40 to 480 µM) | < 1 | 1 to 3.5 (≈ 3.2 to 11.2 µM) | < 1 | < 1 | 1 to 3.5 (≈ 3.2 to 11.2 µM) | 12.5 to 150 (≈ 40 to 480 µM) | < 1 | < 1
CCc1c(-c2cnc3c(ccn3C)c2)[nH]c(=O)c(C(=O)O)c1O [Cpd 32, 5-ethyl-4-hydroxy-6-(1-methyl-1H-pyrrolo[2,3-b]pyridin-5-yl)-2-oxo-1,2-dihydropyridine-3-carboxylic acid] | 1 to 3.5 (≈ 3.19 to 11.2 µM) | < 1 | 12.5 to 150 (≈ 39.9 to 479 µM) | 12.5 to 150 (≈ 39.9 to 479 µM) | < 1 | 12.5 to 150 (≈ 39.9 to 479 µM) | < 1 | 3.5 to 12.5 (≈ 11.2 to 39.9 µM) | 12.5 to 150 (≈ 39.9 to 479 µM) | 1 to 3.5 (≈ 3.19 to 11.2 µM) | 1 to 3.5 (≈ 3.19 to 11.2 µM) | 12.5 to 150 (≈ 39.9 to 479 µM) | < 1 | 1 to 3.5 (≈ 3.19 to 11.2 µM)
Cn1ccc2cc(-c3[nH]c(=O)c(C(=O)O)c(O)c3C3CC3)ccc21 [Cpd 36, 5-cyclopropyl-4-hydroxy-6-(1-methyl-1H-indol-5-yl)-2-oxo-1,2-dihydropyridine-3-carboxylic acid] | 3.5 to 12.5 (≈ 10.8 to 38.5 µM) | 1 to 3.5 (≈ 3.08 to 10.8 µM) | 12.5 to 150 (≈ 38.5 to 462 µM) | 12.5 to 150 (≈ 38.5 to 462 µM) | 1 to 3.5 (≈ 3.08 to 10.8 µM) | 12.5 to 150 (≈ 38.5 to 462 µM) | 1 to 3.5 (≈ 3.08 to 10.8 µM) | 3.5 to 12.5 (≈ 10.8 to 38.5 µM) | 12.5 to 150 (≈ 38.5 to 462 µM) | 3.5 to 12.5 (≈ 10.8 to 38.5 µM) | 3.5 to 12.5 (≈ 10.8 to 38.5 µM) | 12.5 to 150 (≈ 38.5 to 462 µM) | < 1 | 1 to 3.5 (≈ 3.08 to 10.8 µM)
CCc1cc(C(=O)O)c(=O)[nH]c1-c1ccc2c(cnn2C)c1 [Cpd 41, 5-ethyl-6-(1-methyl-1H-indazol-5-yl)-2-oxo-1,2-dihydropyridine-3-carboxylic acid] | 12.5 to 150 (≈ 42 to 505 µM) | 12.5 to 150 (≈ 42 to 505 µM) | 12.5 to 150 (≈ 42 to 505 µM) | 12.5 to 150 (≈ 42 to 505 µM) | 12.5 to 150 (≈ 42 to 505 µM) | 12.5 to 150 (≈ 42 to 505 µM) | < 1 | 12.5 to 150 (≈ 42 to 505 µM) | 3.5 to 12.5 (≈ 11.8 to 42 µM) | < 1 | 12.5 to 150 (≈ 42 to 505 µM) | 12.5 to 150 (≈ 42 to 505 µM) | < 1 | 
CCc1c(-c2ccc3c(cnn3C)c2)[nH]c(=O)c(C(=O)O)c1O [Cpd 42, 5-ethyl-4-hydroxy-6-(1-methyl-1H-indazol-5-yl)-2-oxo-1,2-dihydropyridine-3-carboxylic acid] | 3.5 to 12.5 (≈ 11.2 to 39.9 µM) | 3.5 to 12.5 (≈ 11.2 to 39.9 µM) | 1 to 3.5 (≈ 3.19 to 11.2 µM) | 3.5 to 12.5 (≈ 11.2 to 39.9 µM) | 3.5 to 12.5 (≈ 11.2 to 39.9 µM) | 12.5 to 150 (≈ 39.9 to 479 µM) | < 1 | 12.5 to 150 (≈ 39.9 to 479 µM) | 3.5 to 12.5 (≈ 11.2 to 39.9 µM) | < 1 | 1 to 3.5 (≈ 3.19 to 11.2 µM) | 12.5 to 150 (≈ 39.9 to 479 µM) | < 1 | < 1
CCNCc1cc2cc(-c3[nH]c(=O)c(C(=O)O)c(O)c3CC)ccc2n1C [Cpd 165, 5-ethyl-6-(2-((ethylamino)methyl)-1-methyl-1H-indol-5-yl)-4-hydroxy-2-oxo-1,2-dihydropyridine-3-carboxylic acid] | 3.5 to 12.5 (≈ 9.47 to 33.8 µM) | 1 to 3.5 (≈ 2.71 to 9.47 µM) | < 1 | < 1 | 3.5 to 12.5 (≈ 9.47 to 33.8 µM) | 12.5 to 150 (≈ 33.8 to 406 µM) | < 1 | 3.5 to 12.5 (≈ 9.47 to 33.8 µM) | < 1 | < 1 | 1 to 3.5 (≈ 2.71 to 9.47 µM) | 3.5 to 12.5 (≈ 9.47 to 33.8 µM) | < 1 | < 1
CCc1c(-c2ccc3c(c2)cc(CNC)n3C)[nH]c(=O)c(C(=O)O)c1O [Cpd 203, 5-ethyl-4-hydroxy-6-(1-methyl-2-((methylamino)methyl)-1H-indol-5-yl)-2-oxo-1,2-dihydropyridine-3-carboxylic acid] | 3.5 to 12.5 (≈ 9.85 to 35.2 µM) | 1 to 3.5 (≈ 2.81 to 9.85 µM) | < 1 |  | 3.5 to 12.5 (≈ 9.85 to 35.2 µM) | 12.5 to 150 (≈ 35.2 to 422 µM) | < 1 | 3.5 to 12.5 (≈ 9.85 to 35.2 µM) | < 1 | < 1 | 1 to 3.5 (≈ 2.81 to 9.85 µM) | 1 to 3.5 (≈ 2.81 to 9.85 µM) | < 1 | < 1
C=CCNCc1cc2cc(-c3[nH]c(=O)c(C(=O)O)c(O)c3CC)ccc2n1C.Cl [Cpd 243, 6-(2-((allylamino)methyl)-1-methyl-1H-indol-5-yl)-5-ethyl-4-hydroxy-2-oxo-1,2-dihydropyridine-3-carboxylic acid hydrochloride] | 3.5 to 12.5 | 1 to 3.5 | < 1 | < 1 |  | 12.5 to 150 | < 1 | 3.5 to 12.5 | < 1 | < 1 | 1 to 3.5 | 3.5 to 12.5 | < 1 | < 1
